Data: ChEMBL document CHEMBL4837249, “Discovery of Potent Antiallergic Agents Based on an o-Aminopyridinyl Alkynyl Scaffold” (J Med Chem, 2021)

Experiments:
[1] = biological target: T1, Tyrosine-protein kinase HCK (Homo sapiens, UniProt P08631); test: Inhibition of human recombinant HCK (230 to 497) at 5 nM by radiometric scintillation counting analysis relative to control
[2] = biological target: Mast/stem cell growth factor receptor Kit (Homo sapiens) (UniProt P10721); test: Inhibition of human recombinant c-Kit at 500 nM by radiometric scintillation counting analysis relative to control
[3] = biological target: Platelet-derived growth factor receptor alpha (Homo sapiens) (UniProt P16234); test: Inhibition of human recombinant PDGFRalpha (550 to end) at 50 nM by radiometric scintillation counting analysis relative to control
[4] = biological target: T2, Tyrosine-protein kinase ZAP-70 (Homo sapiens) (UniProt P43403); test: Inhibition of human full length recombinant ZAP70 at 5 nM by radiometric scintillation counting analysis relative to control
T2 sequence (whole entry): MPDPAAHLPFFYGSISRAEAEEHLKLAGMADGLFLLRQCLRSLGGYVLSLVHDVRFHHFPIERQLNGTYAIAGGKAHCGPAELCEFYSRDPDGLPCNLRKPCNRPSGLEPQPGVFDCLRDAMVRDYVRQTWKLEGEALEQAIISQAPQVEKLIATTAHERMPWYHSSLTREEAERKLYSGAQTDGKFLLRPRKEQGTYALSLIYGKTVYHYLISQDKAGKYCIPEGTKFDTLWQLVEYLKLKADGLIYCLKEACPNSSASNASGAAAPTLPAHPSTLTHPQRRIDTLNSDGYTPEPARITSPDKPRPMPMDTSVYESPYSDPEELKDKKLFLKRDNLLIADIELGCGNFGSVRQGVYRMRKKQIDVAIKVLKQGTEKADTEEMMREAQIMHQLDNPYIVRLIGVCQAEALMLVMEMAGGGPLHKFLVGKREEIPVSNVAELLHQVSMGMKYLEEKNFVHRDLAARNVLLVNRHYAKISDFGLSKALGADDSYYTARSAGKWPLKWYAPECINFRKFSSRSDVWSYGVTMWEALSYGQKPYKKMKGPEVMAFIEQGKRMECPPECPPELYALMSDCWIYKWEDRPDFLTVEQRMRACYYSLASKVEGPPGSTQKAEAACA

[5] = biological target: T3, Cytoplasmic tyrosine-protein kinase BMX (Homo sapiens) (UniProt P51813); test: Inhibition of human full length recombinant Bmx at 500 nM by radiometric scintillation counting analysis relative to control
T3 sequence (whole entry): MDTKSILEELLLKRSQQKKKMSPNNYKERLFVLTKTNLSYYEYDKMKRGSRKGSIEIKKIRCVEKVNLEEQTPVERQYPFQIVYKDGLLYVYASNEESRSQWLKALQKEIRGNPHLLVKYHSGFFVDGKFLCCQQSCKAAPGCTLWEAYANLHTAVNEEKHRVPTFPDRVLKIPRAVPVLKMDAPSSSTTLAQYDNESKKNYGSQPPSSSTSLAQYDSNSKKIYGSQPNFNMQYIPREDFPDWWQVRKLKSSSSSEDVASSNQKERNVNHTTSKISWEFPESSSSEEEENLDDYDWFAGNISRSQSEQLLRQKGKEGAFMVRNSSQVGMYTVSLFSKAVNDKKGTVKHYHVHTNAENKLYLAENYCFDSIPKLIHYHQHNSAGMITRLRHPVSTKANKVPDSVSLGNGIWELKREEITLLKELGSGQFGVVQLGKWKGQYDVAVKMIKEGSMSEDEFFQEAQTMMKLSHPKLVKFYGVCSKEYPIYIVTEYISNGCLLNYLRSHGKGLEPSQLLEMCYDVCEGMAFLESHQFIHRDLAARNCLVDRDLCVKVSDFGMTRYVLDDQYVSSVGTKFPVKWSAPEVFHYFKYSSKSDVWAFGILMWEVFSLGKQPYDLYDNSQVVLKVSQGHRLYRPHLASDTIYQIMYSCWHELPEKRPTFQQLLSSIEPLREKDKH

[6] = biological target: T2, Tyrosine-protein kinase ZAP-70 (Homo sapiens); test: Inhibition of human full length recombinant ZAP70 at 500 nM by radiometric scintillation counting analysis relative to control
[7] = biological target: Tyrosine-protein kinase CSK (Homo sapiens, UniProt P41240); test: Inhibition of human full length recombinant CSK at 500 nM by radiometric scintillation counting analysis relative to control
[8] = biological target: T4, Macrophage colony-stimulating factor 1 receptor (Homo sapiens, UniProt P07333); test: Inhibition of human recombinant CSF1R using ATP/Ulight-TK peptide at 500 nM incubated for 15 mins relative to control
[9] = biological target: T1, Tyrosine-protein kinase HCK; test: Inhibition of human recombinant HCK (230 to 497) at 500 nM by radiometric scintillation counting analysis relative to control
[10] = biological target: Tyrosine-protein kinase SYK (Homo sapiens) (UniProt P43405); test: Inhibition of human full length recombinant Syk at 500 nM by radiometric scintillation counting analysis relative to control
[11] = biological target: Tyrosine-protein kinase BTK (Homo sapiens) (UniProt Q06187); test: Inhibition of human full length recombinant BTK at 500 nM by radiometric scintillation counting analysis relative to control
[12] = biological target: RAC-alpha serine/threonine-protein kinase (Homo sapiens) (UniProt P31749); test: Inhibition of human recombinant PKBalpha at 50 nM radiometric scintillation counting analysis relative to control
[13] = biological target: T4, Macrophage colony-stimulating factor 1 receptor; test: Inhibition of human recombinant CSF1R using ATP/Ulight-TK peptide at 5 nM incubated for 15 mins relative to control
[14] = biological target: T5, Tyrosine-protein kinase Lyn (Homo sapiens, UniProt P07948); test: Inhibition of human full length recombinant LYN at 50 nM by radiometric scintillation counting analysis relative to control
[15] = biological target: Protein-tyrosine kinase 6 (Homo sapiens) (UniProt Q13882); test: Inhibition of human recombinant BRK (174 to 734) at 5 nM by radiometric scintillation counting analysis relative to control
[16] = biological target: Proto-oncogene tyrosine-protein kinase Src (Homo sapiens, UniProt P12931); test: Inhibition of human recombinant Src (1-530) at 5 nM by radiometric scintillation counting analysis relative to control
[17] = biological target: T6, Tyrosine-protein kinase ABL1 (Homo sapiens, UniProt P00519); test: Inhibition of human recombinant ABL1 using ATP/Ulight-TK peptide at 500 nM incubated for 15 mins relative to control
[18] = biological target: T6, Tyrosine-protein kinase ABL1; test: Inhibition of human recombinant ABL1 using ATP/Ulight-TK peptide at 50 nM incubated for 15 mins relative to control
[19] = biological target: T5, Tyrosine-protein kinase Lyn; test: Inhibition of human full length recombinant LYN at 500 nM by radiometric scintillation counting analysis relative to control
[20] = biological target: Platelet-derived growth factor receptor beta (Homo sapiens) (UniProt P09619); test: Inhibition of human recombinant PDGFRbeta (557 to end) at 50 nM by radiometric scintillation counting analysis relative to control
[21] = biological target: Protein-tyrosine kinase 6 (Homo sapiens) (UniProt Q13882); test: Inhibition of human recombinant BRK (174 to 734) at 500 nM by radiometric scintillation counting analysis relative to control
[22] = biological target: T6, Tyrosine-protein kinase ABL1; test: Inhibition of human recombinant ABL1 using ATP/Ulight-TK peptide at 5 nM incubated for 15 mins relative to control

T4 sequence (P07333 whole entry): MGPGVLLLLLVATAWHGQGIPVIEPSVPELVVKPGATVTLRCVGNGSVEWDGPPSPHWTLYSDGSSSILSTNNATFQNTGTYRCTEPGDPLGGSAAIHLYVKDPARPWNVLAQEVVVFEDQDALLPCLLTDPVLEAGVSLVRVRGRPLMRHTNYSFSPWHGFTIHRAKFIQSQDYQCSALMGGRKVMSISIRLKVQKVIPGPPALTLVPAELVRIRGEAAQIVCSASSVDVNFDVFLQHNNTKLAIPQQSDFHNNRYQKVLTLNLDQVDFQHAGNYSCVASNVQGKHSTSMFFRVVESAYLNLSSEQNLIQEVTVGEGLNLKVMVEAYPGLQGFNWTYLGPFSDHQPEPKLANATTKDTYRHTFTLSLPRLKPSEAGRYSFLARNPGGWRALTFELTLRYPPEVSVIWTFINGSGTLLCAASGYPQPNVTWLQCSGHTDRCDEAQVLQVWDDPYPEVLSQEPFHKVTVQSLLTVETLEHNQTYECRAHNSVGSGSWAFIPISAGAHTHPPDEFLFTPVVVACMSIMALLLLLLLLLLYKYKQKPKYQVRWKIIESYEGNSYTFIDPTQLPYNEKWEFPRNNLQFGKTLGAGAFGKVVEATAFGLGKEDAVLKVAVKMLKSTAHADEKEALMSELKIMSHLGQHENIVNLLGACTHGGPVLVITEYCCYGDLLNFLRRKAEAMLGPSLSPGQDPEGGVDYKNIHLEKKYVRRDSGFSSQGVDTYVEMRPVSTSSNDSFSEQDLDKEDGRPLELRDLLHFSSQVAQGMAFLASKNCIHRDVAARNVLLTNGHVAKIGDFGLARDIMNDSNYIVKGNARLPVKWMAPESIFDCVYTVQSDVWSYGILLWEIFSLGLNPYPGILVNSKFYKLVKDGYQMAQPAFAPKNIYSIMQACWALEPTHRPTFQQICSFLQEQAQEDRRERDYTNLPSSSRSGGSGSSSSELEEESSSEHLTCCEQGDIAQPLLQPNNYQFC
Tyrosine-protein kinase CSK, sequence (P41240 2-450 limits assumed): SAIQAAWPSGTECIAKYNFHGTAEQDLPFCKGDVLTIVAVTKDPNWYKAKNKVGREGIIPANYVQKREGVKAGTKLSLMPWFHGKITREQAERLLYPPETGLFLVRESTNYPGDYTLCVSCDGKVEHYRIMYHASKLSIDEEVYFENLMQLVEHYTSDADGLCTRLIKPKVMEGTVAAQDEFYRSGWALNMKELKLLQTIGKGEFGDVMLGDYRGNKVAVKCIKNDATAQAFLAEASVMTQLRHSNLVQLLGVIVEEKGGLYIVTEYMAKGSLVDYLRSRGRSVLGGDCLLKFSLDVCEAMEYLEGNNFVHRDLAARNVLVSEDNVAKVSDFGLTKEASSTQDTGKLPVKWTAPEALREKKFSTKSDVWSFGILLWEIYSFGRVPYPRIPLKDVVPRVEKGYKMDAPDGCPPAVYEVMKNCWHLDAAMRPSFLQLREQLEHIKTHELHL
Protein-tyrosine kinase 6 (Homo sapiens), sequence (Q13882 whole entry, looked up): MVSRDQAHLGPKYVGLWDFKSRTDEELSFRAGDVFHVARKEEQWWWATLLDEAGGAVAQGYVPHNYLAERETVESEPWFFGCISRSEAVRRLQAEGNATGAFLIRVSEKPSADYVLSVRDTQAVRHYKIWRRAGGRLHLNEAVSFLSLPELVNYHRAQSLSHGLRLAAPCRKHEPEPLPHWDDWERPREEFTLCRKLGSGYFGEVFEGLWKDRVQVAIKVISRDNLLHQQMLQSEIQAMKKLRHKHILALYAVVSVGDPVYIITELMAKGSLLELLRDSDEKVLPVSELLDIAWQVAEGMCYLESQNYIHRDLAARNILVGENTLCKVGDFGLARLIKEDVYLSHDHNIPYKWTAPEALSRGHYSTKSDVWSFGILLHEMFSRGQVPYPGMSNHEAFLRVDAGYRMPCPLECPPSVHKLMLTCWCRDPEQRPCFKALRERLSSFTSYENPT
T6 sequence (P00519 whole entry): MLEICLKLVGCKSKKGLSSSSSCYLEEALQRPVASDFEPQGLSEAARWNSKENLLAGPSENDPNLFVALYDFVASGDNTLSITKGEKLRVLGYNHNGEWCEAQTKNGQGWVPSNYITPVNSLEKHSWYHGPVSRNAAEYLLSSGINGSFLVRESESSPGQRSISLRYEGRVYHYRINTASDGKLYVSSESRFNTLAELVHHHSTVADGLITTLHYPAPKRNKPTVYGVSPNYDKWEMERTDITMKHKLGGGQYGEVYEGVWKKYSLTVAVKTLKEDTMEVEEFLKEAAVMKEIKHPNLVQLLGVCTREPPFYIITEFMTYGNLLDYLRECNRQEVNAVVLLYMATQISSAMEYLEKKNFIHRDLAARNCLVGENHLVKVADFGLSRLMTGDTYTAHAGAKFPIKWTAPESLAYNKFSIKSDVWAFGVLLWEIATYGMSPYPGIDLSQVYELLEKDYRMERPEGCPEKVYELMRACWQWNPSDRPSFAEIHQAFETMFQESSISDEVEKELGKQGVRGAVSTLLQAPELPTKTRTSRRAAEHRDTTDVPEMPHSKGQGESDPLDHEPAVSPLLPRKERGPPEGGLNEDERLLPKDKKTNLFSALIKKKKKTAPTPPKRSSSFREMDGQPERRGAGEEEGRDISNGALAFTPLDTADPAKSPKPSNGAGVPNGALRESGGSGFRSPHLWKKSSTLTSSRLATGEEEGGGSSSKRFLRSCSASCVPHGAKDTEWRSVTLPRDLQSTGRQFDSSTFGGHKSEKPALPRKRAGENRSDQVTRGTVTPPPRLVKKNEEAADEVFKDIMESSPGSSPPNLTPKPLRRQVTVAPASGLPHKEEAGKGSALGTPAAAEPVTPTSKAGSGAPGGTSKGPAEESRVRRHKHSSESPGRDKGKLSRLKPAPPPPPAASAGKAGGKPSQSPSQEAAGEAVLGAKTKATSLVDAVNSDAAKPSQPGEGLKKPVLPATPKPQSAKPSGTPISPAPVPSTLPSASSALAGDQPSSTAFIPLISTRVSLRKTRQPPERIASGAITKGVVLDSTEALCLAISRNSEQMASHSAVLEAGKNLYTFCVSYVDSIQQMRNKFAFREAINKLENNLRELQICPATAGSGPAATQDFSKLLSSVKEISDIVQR
RAC-alpha serine/threonine-protein kinase (Homo sapiens), sequence (P31749 whole entry): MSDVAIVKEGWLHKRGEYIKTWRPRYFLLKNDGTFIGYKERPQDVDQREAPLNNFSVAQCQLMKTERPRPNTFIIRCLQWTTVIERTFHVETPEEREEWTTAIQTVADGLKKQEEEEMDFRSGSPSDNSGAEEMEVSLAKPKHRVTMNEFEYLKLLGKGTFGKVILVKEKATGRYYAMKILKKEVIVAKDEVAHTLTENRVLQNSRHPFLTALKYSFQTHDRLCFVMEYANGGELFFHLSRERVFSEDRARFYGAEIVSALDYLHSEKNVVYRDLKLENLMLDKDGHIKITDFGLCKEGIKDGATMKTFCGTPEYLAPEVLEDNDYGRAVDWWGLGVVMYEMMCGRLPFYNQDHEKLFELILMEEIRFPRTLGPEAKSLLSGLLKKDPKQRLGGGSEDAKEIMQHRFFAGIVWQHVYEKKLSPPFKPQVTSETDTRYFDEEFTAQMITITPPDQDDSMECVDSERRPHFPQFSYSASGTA
Platelet-derived growth factor receptor alpha (Homo sapiens), sequence (P16234 whole entry): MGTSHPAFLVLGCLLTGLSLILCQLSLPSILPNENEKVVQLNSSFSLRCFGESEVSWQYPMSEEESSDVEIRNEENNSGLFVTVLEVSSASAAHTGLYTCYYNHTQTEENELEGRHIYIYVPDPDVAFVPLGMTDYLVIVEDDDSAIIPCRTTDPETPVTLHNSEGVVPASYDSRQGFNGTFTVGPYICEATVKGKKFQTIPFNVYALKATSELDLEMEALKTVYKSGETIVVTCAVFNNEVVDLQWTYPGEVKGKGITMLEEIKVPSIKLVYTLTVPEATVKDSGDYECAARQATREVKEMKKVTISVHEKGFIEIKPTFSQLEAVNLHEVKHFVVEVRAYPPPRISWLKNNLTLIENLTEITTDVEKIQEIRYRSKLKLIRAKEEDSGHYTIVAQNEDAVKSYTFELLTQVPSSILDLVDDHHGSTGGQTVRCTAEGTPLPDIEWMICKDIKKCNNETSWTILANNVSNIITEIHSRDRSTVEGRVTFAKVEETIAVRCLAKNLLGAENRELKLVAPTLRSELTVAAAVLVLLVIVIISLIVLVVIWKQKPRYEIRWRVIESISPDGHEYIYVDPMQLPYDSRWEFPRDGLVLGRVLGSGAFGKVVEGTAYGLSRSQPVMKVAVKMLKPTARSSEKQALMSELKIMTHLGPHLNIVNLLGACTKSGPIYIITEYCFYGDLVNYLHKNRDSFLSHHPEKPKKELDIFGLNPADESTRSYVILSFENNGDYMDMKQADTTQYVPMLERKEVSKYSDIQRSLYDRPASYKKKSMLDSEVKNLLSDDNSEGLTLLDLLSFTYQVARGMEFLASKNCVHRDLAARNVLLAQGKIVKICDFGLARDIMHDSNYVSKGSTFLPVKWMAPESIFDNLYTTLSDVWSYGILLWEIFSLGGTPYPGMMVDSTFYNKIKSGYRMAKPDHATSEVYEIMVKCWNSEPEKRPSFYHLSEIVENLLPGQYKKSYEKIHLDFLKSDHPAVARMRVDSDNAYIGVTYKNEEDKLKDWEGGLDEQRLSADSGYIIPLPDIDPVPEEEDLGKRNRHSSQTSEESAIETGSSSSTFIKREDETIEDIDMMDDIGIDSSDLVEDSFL

SMILES	inhibition [1] [%]	inhibition [2] [%]	inhibition [3] [%]	inhibition [4] [%]	inhibition [5] [%]	inhibition [6] [%]	inhibition [7] [%]	inhibition [8] [%]	inhibition [9] [%]	inhibition [10] [%]	inhibition [11] [%]	inhibition [12] [%]	inhibition [13] [%]	inhibition [14] [%]	inhibition [15] [%]	inhibition [16] [%]	inhibition [17] [%]	inhibition [18] [%]	inhibition [19] [%]	inhibition [20] [%]	other results
Cc1ccc(C(=O)Nc2cc(C(F)(F)F)cc(C(F)(F)F)c2)cc1C#Cc1cc(-c2cnn(C)c2)cnc1N	11	17	1	9	89	-1	71	96	97	2	49	2	25	105	-2	-10	104	88	96	6	inhibition [21]: 22%; inhibition [22]: 22%
Cc1ccc(C(=O)Nc2ccc(Cl)cc2Cl)cc1C#Cc1cc(-c2cnn(C)c2)cnc1N	1	56	21	20	23	20	39	98	89	8	11	7	34	93	9	4	89	64	105	54	inhibition [21]: 85%; inhibition [22]: 32%
Cc1ccc(C(=O)Nc2ccc(OC(F)(F)F)cc2)cc1C#Cc1cc(-c2cnn(C)c2)cnc1N	68	65	32	-7	20	-4	23	90	93	9	-2	2	39	99	17	71	102	96	99	13	inhibition [21]: 92%; inhibition [22]: 58%
